Source: US9060928B2, “Tacrolimus injection preparation” (FUZHOU HARVESTER PHARMACEUTICAL R&D CO., LTD., priority 2009, dated 2015)

B1: 10% ovalbumin solution: 10% ovalbumin solution, positive control of the hypersensitivity test (protein, UniProt P01012 2-386, looked up)
Ovalbumin: GSIGAASMEFCFDVFKELKVHHANENIFYCPIAIMSALAMVYLGAKDSTRTQINKVVRFDKLPGFGDSIEAQCGTSVNVHSSLRDILNQITKPNDVYSFSLASRLYAEERYPILPEYLQCVKELYRGGLEPINFQTAADQARELINSWVESQTNGIIRNVLQPSSVDSQTAMVLVNAIVFKGLWEKAFKDEDTQAMPFRVTEQESKPVQMMYQIGLFRVASMASEKMKILELPFASGTMSMLVLLPDEVSGLEQLESIINFEKLTEWTSSNVMEERKIKVYLPRMKMEEKYNLTSVLMAMGITDVFSSSANLSGISSAESLKISQAVHAAHAEINEAGREVVGSAEAGVDAASVSEEFRADHPFLFCIKHIATNAVLFFGRCVSP

Columns and labels:
[1] = cited from earlier work
guinea pigs = assay: Hypersensitivity test in animals; assay type: in vivo
Procedure: 18 healthy guinea pigs weighed 250-350 g were divided into 3 groups (a test group, a negative control group, and a positive control group) of 6 animals each at random. […] In 15 min after the injection, the hypersensitive responses of the injected guinea pigs were observed. A positive response was determined if two or more of piloerection, dyspnea, or 3 cough sounds, or one of twitch, collapse or death appeared.

Molecule	Solubility in organic solvents ([1]; organic solvents (such as methanol, ethanol, or acetone))	Solubility in water ([1]; water)	Occurrence of hypersensitive response (guinea pigs; guinea pigs, n = 6, intraperitoneal sensitization, intravenous boost at days 14 and 21, animals responding/total)	Hypersensitive response of positive control (in words) (guinea pigs; in 1 min after two times of intravenous administration, 6 guinea pigs)
C=CC[C@@H]1/C=C(\C)C[C@H](C)C[C@H](OC)[C@H]2O[C@@](O)(C(=O)C(=O)N3CCCC[C@H]3C(=O)O[C@H](/C(C)=C/[C@@H]3CC[C@@H](O)[C@H](OC)C3)[C@H](C)[C@@H](O)CC1=O)[C@H](C)C[C@@H]2OC (relative stereo) [tacrolimus, [3S—[3R*[E(1S*,3S*,4S*)],4S*,5R*,8S*,9E,12R*,14R*,15S*,16R*,18S*,19S*,26aR*]]-5,6,8,11,12,13,14,15,16,17,18,19,24,25,26a-hexa-decahydro-5,19-dihydroxy-3-[2-(4-hydroxy-3-methoxycyclohexyl)-1-methylethenyl]-14,16-dimethoxy-4,10,12,18-tetramethyl-8-(2-propenyl)-15,19-epoxy-3H-pyrido[2,1-c][1,4]oxazacyclotricosene-1,7,20,21(4H,23H)-tetrone, monohydrate]	freely soluble	practically insoluble		
B1			6/6	cough, respiratory depression, and twitch to death occur to all of the 6 guinea pigs
